Measured values from patent publication US5003011A, “Therapeutic decapeptides” (The Administrators of the Tulane Educational Fund, priority 1989, dated 1991).
Numbered stars: 1 amine (or outer) side, 2 acyl side, 3 side chain; on linkers, the order of the positions; unused ones are H or OH. Square brackets hold non-standard residues; d marks the D form. Peptide text beside a SMILES is read from it. X1 = O=C([C@@H](CCCCNC1CCCC1)N[*:1])[*:2]; X2 = O=C([C@H](CCCCNC1CCCC1)N[*:1])[*:2]; d2Nal = N[C@H](Cc1ccc2ccccc2c1)C(=O)O

Assay: Body weight ratio (FBW/IBW) in the MCF-7 subrenal capsule assay
Assay type: in vivo, mice
From the text: Female CDF-1 mice were implanted with a human mammary tumor (MCF-7) underneath the kidney capsules on day 0. […] The negative control group received vehicle only and the positive control was ovariectomized on day 0.

[1] = Table 2, 100 μg/inj. s.c., QDO5

For `CC(C)C[C@H](NC(=O)[C@@H](Cc1c[nH]c2ccccc12)NC(=O)[C@H](Cc1ccc(O)cc1)NC(=O)[C@H](CO)NC(=O)[C@H](Cc1c[nH]c2ccccc12)NC(=O)[C@H](Cc1c[nH]cn1)NC(=O)[C@@H]1CCC(=O)N1)C(=O)N[C@@H](CCCNC(=N)N)C(=O)N1CCC[C@H]1C(=O)NCC(N)=O` [BIM-21003, reference compound], which “FBW/IBW = Final Body Weight/Initial Body Weight” value [1] is on record?
Its value is 1.04.

With `CC(C)C[C@H](NC(=O)[C@@H](Cc1ccccc1)NC(=O)[C@H](Cc1ccc(O)cc1)NC(=O)[C@H](CO)NC(=O)[C@H](Cc1c[nH]c2ccccc12)NC(=O)[C@H](Cc1c[nH]cn1)NC(=O)[C@@H]1CCC(=O)N1)C(=O)N[C@@H](CCCNC(=N)N)C(=O)N1CCC[C@H]1C(=O)NCC(N)=O` [BIM-21006, reference compound] as the compound, how does the “FBW/IBW = Final Body Weight/Initial Body Weight” value [1] read?
Its value is 0.99.

Which “FBW/IBW = Final Body Weight/Initial Body Weight” value (Table 2, 1 μg/inj. s.c., QDO5) does the source give for `CC(=O)N[C@H](Cc1ccc2ccccc2c1)C(=O)N[C@H](Cc1ccc(Cl)cc1)C(=O)N[C@H](Cc1ccccc1)C(=O)N[C@@H](CO)C(=O)N[C@@H](Cc1ccc(O)cc1)C(=O)N[C@H](CCCNC(=N)N)C(=O)N[C@@H](Cc1ccccc1)C(=O)N[C@@H](CCCNC(=N)N)C(=O)N1CCC[C@H]1C(=O)N[C@H](C)C(N)=O` [BIM-21009] (HELM PEPTIDE1{[ac].[O=C([C@@H](Cc1ccc2ccccc2c1)N[*:1])[*:2]].[O=C([C@@H](Cc1ccc(Cl)cc1)N[*:1])[*:2]].[dF].S.Y.[dR].F.R.P.[dA].[am]}$$$$V2.0) here?
The value was 0.98.

What about the “FBW/IBW = Final Body Weight/Initial Body Weight” value (Table 2, 10 μg/inj. s.c., QDO5) of the same compound?
Its value is 0.99.

Which “FBW/IBW = Final Body Weight/Initial Body Weight” value (Table 2, 1 μg/inj. s.c., QDO5) does the source give for `CC(=O)N[C@H](Cc1ccc2ccccc2c1)C(=O)N[C@H](Cc1ccccc1)C(=O)N[C@H](Cc1ccccc1)C(=O)N[C@@H](CO)C(=O)N[C@@H](Cc1ccc(O)cc1)C(=O)N[C@H](CCCNC(=N)N)C(=O)N[C@@H](Cc1ccccc1)C(=O)N[C@@H](CCCNC(=N)N)C(=O)N1CCC[C@H]1C(=O)N[C@H](C)C(N)=O` [BIM-21011] (HELM PEPTIDE1{[ac].[O=C([C@@H](Cc1ccc2ccccc2c1)N[*:1])[*:2]].[dF].[dF].S.Y.[dR].F.R.P.[dA].[am]}$$$$V2.0) here?
The value was 0.98.

And the “FBW/IBW = Final Body Weight/Initial Body Weight” value (Table 2, 10 μg/inj. s.c., QDO5)?
The value was 0.99.

What about the “FBW/IBW = Final Body Weight/Initial Body Weight” value (Table 2, 15 μg/inj. s.c., QDO5) of the same compound?
The value was 0.99.

With `CC(=O)N[C@H](Cc1ccc2ccccc2c1)C(=O)N[C@H](Cc1ccc(Cl)cc1)C(=O)N[C@H](Cc1c[nH]c2ccccc12)C(=O)N[C@@H](CO)C(=O)N[C@@H](Cc1ccc(O)cc1)C(=O)N[C@H](CCCNC(=N)N)C(=O)N[C@@H](Cc1ccccc1)C(=O)N[C@@H](CCCNC(=N)N)C(=O)N1CCC[C@H]1C(=O)N[C@H](C)C(N)=O` [BIM-21023] (HELM PEPTIDE1{[ac].[O=C([C@@H](Cc1ccc2ccccc2c1)N[*:1])[*:2]].[O=C([C@@H](Cc1ccc(Cl)cc1)N[*:1])[*:2]].[dW].S.Y.[dR].F.R.P.[dA].[am]}$$$$V2.0) as the compound, how does the “FBW/IBW = Final Body Weight/Initial Body Weight” value (Table 3, 25 μg/inj. s.c., QDO5) read?
The value was 1.01.

For `CC(=O)N[C@H](Cc1ccc2ccccc2c1)C(=O)N[C@H](Cc1ccccc1)C(=O)N[C@H](Cc1ccccc1)C(=O)N[C@@H](CO)C(=O)N[C@@H](Cc1ccccc1)C(=O)N[C@H](CCCNC(=N)N)C(=O)N[C@@H](CC(C)C)C(=O)N[C@@H](CCCNC(=N)N)C(=O)N1CCC[C@H]1C(=O)N[C@H](C)C(N)=O` [BIM-21024] (HELM PEPTIDE1{[ac].[O=C([C@@H](Cc1ccc2ccccc2c1)N[*:1])[*:2]].[dF].[dF].S.F.[dR].L.R.P.[dA].[am]}$$$$V2.0), which “FBW/IBW = Final Body Weight/Initial Body Weight” value (Table 3, 25 μg/inj. s.c., QDO5) is on record?
Its value is 1.00.

Which “FBW/IBW = Final Body Weight/Initial Body Weight” value (Table 3, 25 μg/inj. s.c., QDO5) does the source give for `CC(=O)N[C@H](Cc1ccc2ccccc2c1)C(=O)N[C@H](Cc1ccccc1)C(=O)N[C@H](Cc1ccccc1)C(=O)N[C@@H](CO)C(=O)N[C@@H](Cc1ccc(O)cc1)C(=O)N[C@H](CCCCNCc1ccccc1)C(=O)N[C@@H](Cc1ccccc1)C(=O)N[C@@H](CCCNC(=N)N)C(=O)N1CCC[C@H]1C(=O)N[C@H](C)C(N)=O` [BIM-21025] (HELM PEPTIDE1{[ac].[O=C([C@@H](Cc1ccc2ccccc2c1)N[*:1])[*:2]].[dF].[dF].S.Y.[O=C([C@@H](CCCCNCc1ccccc1)N[*:1])[*:2]].F.R.P.[dA].[am]}$$$$V2.0) here?
Its value is 0.97.

Which “FBW/IBW = Final Body Weight/Initial Body Weight” value (Table 3, 25 μg/inj. s.c., QDO5) does the source give for `CC(=O)N[C@H](Cc1ccc2ccccc2c1)C(=O)N[C@H](Cc1ccccc1)C(=O)N[C@H](Cc1ccccc1)C(=O)N[C@@H](CO)C(=O)N[C@@H](Cc1ccc(O)cc1)C(=O)N[C@H](CCCCNC1CCCC1)C(=O)N[C@@H](Cc1ccccc1)C(=O)N[C@@H](CCCCNC1CCCC1)C(=O)N1CCC[C@H]1C(=O)N[C@H](C)C(N)=O` [BIM-21026] (Ac-[d2Nal][dF][dF]SY[X1]F[X2]P[dA]-NH2) here?
The value was 1.01.

Which results are given for `CC(C)[C@@H]1NC(=O)[C@H](CCCCN)NC(=O)[C@@H](Cc2c[nH]c3ccccc23)NC(=O)[C@H](Cc2ccc(O)cc2)NC(=O)[C@@H](NC(=O)[C@H](N)Cc2ccc3ccccc3c2)CSSC[C@@H](C(=O)N[C@H](C(N)=O)[C@@H](C)O)NC1=O` [BIM-23014C, reference compound]?
FBW/IBW = Final Body Weight/Initial Body Weight (Table 3, 2 μg/inj. s.c., QDO5, b.i.d.): 1.00; FBW/IBW = Final Body Weight/Initial Body Weight (Table 3, 10 μg/inj. s.c., QDO5, b.i.d.): 0.99; FBW/IBW = Final Body Weight/Initial Body Weight (Table 3, 50 μg/inj. s.c., QDO5, b.i.d.): 0.98
